One series relates to MDA-MB-231. The series is described as follows: Cell cycle progression, MDA-MB-231. Format: cell-based, human.
The test system of series [1] is human colon cancer cells (HCT-116). The series can be described thus: MTT cell proliferation assay, HCT-116. Format: cell-based. Here is the method:
(§1) Anticancer activity of crude extracts were evaluated against four cell lines, human triple negative breast cancer cells (MDA-MB-231), estrogen positive breast cancer cells (MCF-7), human neuroblastoma cells (IMR-32) and human colon cancer cells (HCT-116) that were procured from NCCS-Pune using 3-(4,5-Dimethylthiazol-2-Yl)-2,5-Diphenyltetrazolium Bromide (MTT) assay.
(§2) In vitro cytotoxic activity of all the extracts was determined by MTT assay as described by Manikandan et al. (2017) with slight modification. After trypsinization, viable cells were counted by trypan blue exclusion in a hemocytometer and diluted with the medium.
(§3) The cells were seeded in 96 well plate at a density of 1-2×10^4 cells per well. The plate was incubated at 37° C. in a 5% CO2 atmosphere. The following day media was removed and the cells were treated with standard, doxorubicin (0.1-4 μg/ml) or plant extract at different concentrations (100-500 μg/ml). The extract was initially dissolved in 1:1 ratio of ethanol-ethyl acetate mixture and further diluted in medium to get the required concentrations. As plant extracts were dissolved in ethyl acetate and as ethyl acetate is not miscible with cell culture media, a mixture of ethanol-ethyl acetate in a ratio of 1:1 is used for all the cell culture experiments. The final mixture used for treating the cells contained not more than 0.5% of the ethanol-ethyl acetate mixture. Negative controls were treated with the same percentage of ethanol-ethyl acetate mixture.
(§4) The treated plate was incubated at 37° C. in a humidified incubator with 5% CO2 for 24 h. After the incubation period, the media was removed, 100 μl of 0.1 mg/ml MTT reagent was added and incubated at 37° C. in a humidified incubator with 5% CO2 for 1 h till purple MTT formazan crystals were visible under the microscope. The formazan crystals were dissolved by adding 100 μl DMSO and spectrophotometric readings were taken at 540 nm.
(§5) The cytotoxic activity of standard or plant extract was calculated as the percentage of cell growth inhibition by using the following formula.
(§6) Where Acontrol indicates the absorbance of control containing 0.5% ethanol-ethyl acetate mixture. Asample is the absorbance of treated cells at different concentrations. IC50 values (the concentration of sample required for inhibition of 50% of cell growth) were obtained from the regression line.
(§7) The anticancer potential of the anticancer compound against MDA-MB-231, MCF-7, IMR-32 and HCT-116 cells was evaluated at different concentrations (40, 80, 120, 160 and 200 μg/ml) and different incubation times (24 h, 48 h, 72 h) using MTT assay by the method described above.

Series [2] relates to human peripheral blood lymphocytes. The series is described as follows: Trypan blue exclusion assay, lymphocyte viability. Format: cell-based. Here is the method: In order to know the side effects associated with the treatment of anticancer compound, the effect of the anticancer compound on the viability of human peripheral blood lymphocytes was determined using trypan blue exclusion assay. Along with the viability of lymphocytes, the viability of different cancer cells at that particular concentration and incubation time are shown in Table 6.

Another series deals with MDA-MB-231 cells. The series can be described thus: Gene expression by PCR relative to β-actin, MDA-MB-231. Format: cell-based, human. The settings on record: MDA-MB-231, 96 μg/ml, 72 h. Here is the method: (§8) FIG. 7. Detection of genes by PCR. Lane 1: MDA-MB-231 control cells; lane 2: MDA-MB-231 cells treated with anticancer compound (96 μg/ml) for 72 h; lane 3: IMR-32 control cells; lane 4: IMR-32 cells treated with anticancer compound (87 μg/ml) for 72 h; control cells are treated with 0.2% of ethanol-ethyl acetate mixture at 1:1 ratio.
(§9) Genetic level changes associated with the treatment of anticancer compound in MDA-MB-231 and IMR-32 cells were studied by isolating the RNA, reverse transcribing the RNA to cDNA, amplifying the genes using specific primers. The resulting bands were analyzed using image J and the expression of each gene was represented as relative gene expression using the β-actin gene as a control.

Series [3] has as its system IMR-32 cells. The series is described as follows: Gene expression by PCR relative to β-actin, IMR-32. Format: cell-based, human. The settings on record: IMR-32, 87 μg/ml, 72 h. Here is the method: as §8, §9
The test system of series [4] is human neuroblastoma cells (IMR-32). The series can be described thus: MTT cell proliferation assay, IMR-32. Format: cell-based. Here is the method: as §1, §2, §3, §4, §5, §6, §7
Series [5] relates to IMR-32 cells. The series is described as follows: Cell cycle progression, IMR-32. Format: cell-based, human.
Series [6] relates to human triple negative breast cancer cells (MDA-MB-231). The series is described as follows: MTT cell proliferation assay, MDA-MB-231. Format: cell-based. Here is the method: as §1, §2, §3, §4, §5, §6
Further, the most polar band from all the fractions was combined and termed as fraction 29. All the compounds separated along with crude diethyl ether extract were analyzed for their anticancer potential against MDA-MB-231 cells at a concentration of 300 μg/ml using MTT assay as described above. Cytotoxic activity was expressed as percentage inhibition of cells at 300 μg/ml.
as §7

Series [7] deals with estrogen positive breast cancer cells (MCF-7). The series can be described thus: MTT cell proliferation assay, MCF-7. Format: cell-based. The settings on record: Homo sapiens. Here is the method: as §1, §2, §3, §4, §5, §6, §7
(Formazan colour is commonly taken as a measure of viable cells.)

In the next series the test system is lymphocytes. The settings on record: 1 μg/ml, 24 h; cited from earlier work.

Values after ≈ are worked out from the molar mass of the structure shown. Values joined by “and” are separate entries in the source; they are usually repeats but may differ in a detail not shown here. Identical values can stand only once.

Take `Cc1cnc(-c2ccc(CCCCCCCC(C)C)cc2)c(C)c1C` [Compound 16, 3,4,5-trimethyl-2-(4-(8-methylnonyl)phenyl)pyridine]: the “phase at which cell cycle progression is inhibited” value with MDA-MB-231 was “G2/M phase”; in the series on IMR-32 cells [5], “G1 phase”. The viability at 300 µg/mL in [1] (HCT-116, 300 μg/ml, 72 h, read-out: Viability percentage HCT-116) is 3.29 ± 3.15%; in series [4] (IMR-32, 300 μg/ml, 72 h, read-out: Viability percentage IMR-32), 0%; in [6] (MDA-MB-231, 300 μg/ml, 72 h, read-out: Viability percentage MDA-MB-231) it was 0%; in series [7] (MCF7, 300 μg/ml, 72 h, read-out: Viability percentage MCF-7), 0%. Moreover, the viability at 350 µg/mL in series [1] (HCT-116, 350 μg/ml, 48 h, read-out: Viability percentage HCT-116) was determined as 0%; in [4] (IMR-32, 350 μg/ml, 48 h, read-out: Viability percentage IMR-32), 0%; in series [6] (MDA-MB-231, 350 μg/ml, 48 h, read-out: Viability percentage MDA-MB-231), 0%; in series [7] (MCF7, 350 μg/ml, 48 h, read-out: Viability percentage MCF-7) it was 0%. In addition, the viability at 400 µg/mL in series [1] (HCT-116, 400 μg/ml, 24 h, read-out: Viability percentage HCT-116) worked out at 0%; in series [4] (IMR-32, 400 μg/ml, 24 h, read-out: Viability percentage IMR-32), 0%; in series [6] (MDA-MB-231, 400 μg/ml, 24 h, read-out: Viability percentage MDA-MB-231), 0%; in [7] (MCF7, 400 μg/ml, 24 h, read-out: Viability percentage MCF-7), 0%. For the same compound, the IC50 stood at 179 ± 6.12 µg/mL (≈ 531 µM) in [1] (HCT-116, 24 h); 162 ± 5.02 µg/mL (≈ 478 µM) in series [1] (HCT-116, 48 h); 159 µg/mL (≈ 470 µM) in series [1] (HCT-116, 72 h); 224 ± 7.21 µg/mL (≈ 663 µM) in [4] (IMR-32, 24 h); 165.2 ± 0.87 µg/mL (≈ 489 µM) in series [4] (IMR-32, 48 h); 87.8 µg/mL (≈ 260 µM) in series [4] (IMR-32, 72 h). For the same compound, the half-maximal inhibitory concentration (IC50) came out at 199.2 ± 0.5 µg/mL (≈ 590 µM) in series [6] (MDA-MB-231, 24 h); 99.1 ± 1.6 µg/mL (≈ 294 µM) in [6] (MDA-MB-231, 48 h); 96.2 ± 1.75 µg/mL (≈ 285 µM) in series [6] (MDA-MB-231, 72 h); 243 µg/mL (≈ 719 µM) in series [7] (MCF7, 24 h); 183 ± 6.29 µg/mL (≈ 543 µM) in [7] (MCF7, 48 h); 155 ± 5.24 µg/mL (≈ 458 µM) in [7] (MCF7, 72 h). Moreover, the “Viability percentage Lymphocytes” value is 74.94% and 74.94 ± 1.50% in series [2] (300 μg/ml, 72 h, listed as anticancer compound); 82.11 ± 1.42% in series [2] (350 μg/ml, 48 h); 91.04% and 90.40 ± 4.02% in [2] (400 μg/ml, 24 h, listed as anticancer compound). The “Bcl-2 gene expression vs control” value with MDA-MB-231 cells was “reduced expression levels”; in the series on IMR-32 cells [3], “no change in the expression levels”. Further, the “IKK-β gene expression vs control” value was “almost similar in treated and control cells” in the series on MDA-MB-231 cells; “downregulation” with IMR-32 cells [3]. The entries for the “Nrf2 gene expression vs control” value in the series with MDA-MB-231 cells and with IMR-32 cells [3] were “downregulation” and “reduced expression level”, respectively. In addition, the “caspase-3 gene expression vs control” value in the series with MDA-MB-231 cells and with IMR-32 cells [3] was “upregulation” in each case. For the same compound, the “p53 gene expression vs control” value in the series with MDA-MB-231 cells and in the series on IMR-32 cells [3] was “reduced” throughout. The inhibition at 300 µg/mL in series [6] (MDA-MB-231 cells, 300 μg/ml, read-out: Percentage Inhibition) came to 94.54 ± 0.59%.

As for `COc1cccc2c1C(=O)c1c(O)c3c(c(O)c1C2=O)C[C@@](O)(C(=O)CO)C[C@@H]3O[C@H]1C[C@H](N)[C@H](O)[C@H](C)O1` [Doxorubicin, doxorubicin, reference compound], the lymphocyte viability with lymphocytes is 65%. Also, the concentration for half-maximal inhibition (IC50) in [1] (HCT-116, crude extracts 100-500 μg/ml, doxorubicin 0.1-4 μg/ml, 24 h) was determined as 0.4 µg/mL (≈ 0.736 µM); in series [4] (IMR-32, crude extracts 100-500 μg/ml, doxorubicin 0.1-4 μg/ml, 24 h), 0.5 µg/mL (≈ 0.92 µM); in series [6] (MDA-MB-231, crude extracts 100-500 μg/ml, doxorubicin 0.1-4 μg/ml, 24 h), 0.83 ± 0.03 µg/mL (≈ 1.53 µM); in series [7] (MCF7, crude extracts 100-500 μg/ml, doxorubicin 0.1-4 μg/ml, 24 h), 0.66 ± 0.04 µg/mL (≈ 1.21 µM).

For orientation: viability means the share of living cells, or the viability signal relative to a control. Broadly, the IC50 is the point on the concentration scale where inhibition reaches its midpoint. In general, inhibition refers to how much of the control response was suppressed.

Source of the values: US20220024872A1, “ISOLATION AND CHARACTERIZATION OF ANTICANCER COMPOUND FROM SESUVIUM PORTULACASTRUM (L.) L” (priority 2019, published 2022).
